# In patent US12252417B2, “Passive, gravity-driven system for treatment of an effluent in a diagnostic system” (Ventana Medical Systems, Inc., priority 2016, dated 2025):
# “Also recorded” adds a separate entry of the source.
# How the values were obtained:
# [1] = Thermal radical initiator screening, DAB decomposition by sonication in BenchMark Reaction Buffer; settings: for Effect on DAB decomposition with sonication: BenchMark Reaction Buffer; for Sonication time after which no DAB monomer was detectable: DAB 68.1 mg/L in BenchMark Reaction Buffer, initiator approx. 0.0882 mmol per 25 mL
# Experimental: Sonication can form acoustic cavitation in liquids causing the formation, growth and implosive collapse of bubbles and heat generation. Sonication was used to thermally activate thermal radical initiators to induce DAB decomposition. Thermal radical initiator screening experiments were performed using a MisonixSonicator 3000 Ultrasonic Liquid Processor. The sonicator voltage converter and horn were connected to a microtip probe. […] A DAB sample in RTD BenchMark Reaction Buffer (68.1 mg/L) was sonicated with or without the presence of a thermal radical initiator. […] The sonication mixed the sample efficiently.
# [2] = Radical initiator screening in DAB UV oxidation (Aquatop 10 W in-line UV sterilizer, BenchMark Reaction Buffer); settings: for Impact on DAB UV oxidation: 30 min UV exposure, relative to no initiator; for % Loss DAB (30 min UV): DAB 68.1 mg/L in BenchMark Reaction Buffer, initiator approx. 0.882 mmol per 250 mL, 10 W
# [3] = DAB UV oxidation in in-line UV sterilizer, DDI water matrix; type: physicochemical
# Experimental: A DAB sample in DDI water (68.1 mg/L) was treated with 3% hydrogen peroxide as a radical initiator (1 mL per approx. 225 mL DAB sample). […] Mixing aided the diffusion of the homolytic hydrogen peroxide UV oxidation product (HO·), which oxidized DAB.
# The sample was irradiated by UV light (60 to 90 min).
# [4] = DAB UV oxidation in in-line UV sterilizers, BenchMark IHC waste matrix; settings: for UV irradiation time for DAB monomer to decrease to LOD: 55 W
# Experimental: DAB degradation rates were determined using HPLC analysis to monitor DAB concentration change in Milli-Q® deionized (“DDI”) water, BenchMark Reaction Buffer and BenchMark IHC waste matrices. HPLC analyses were performed on a Waters Acquity Ultra Performance Liquid Chromatography (“UPLC”) instrument with photodiode array (“PDA”) detection. Standard reverse phase chromatography was used for UPLC analyses in BenchMark Reaction Buffer and DDI water matrices. Reverse phase HPLC chromatography with ion-pairing was used for DAB analysis in BenchMark waste. DAB samples were analyzed without filtration or dilution.
# A SIELC PrimeSep S column 2.1×100 mm (5μ) and 2.1×10 mm guard column HPLC column was used. The eluents were 40% acetonitrile in 50 mM ammonium formate (pH=4.0). The flow rate was 0.2 mL/min, the gradient profile was an isocratic elution, the column temperature was 30° C., and the injection volume was 8 μL. The PDA detection wavelengths were 210 to 499 nm (2.4 nm resolution and 20 pts/sec). The expected retention time (in BenchMark waste) for DAB and 2-HOPyr was 2.56 min and 1.64 min, respectively.
# Multiple UV irradiation flow-through systems were used to examine UV promoted DAB oxidation. A commercial in-line UV water sterilizers with preset lamp wattage and UV irradiation chamber geometry, namely, an Aquatop 10 W In-line UV sterilizer (Aquatop p/n: IL10-UV), was used to treat water up to a 211 gallon/hour flow rate. The sterilizer featured an external variable-speed micropump gear pump that controlled fluid flow rates with the assistance of an independent power supply. Samples were irradiated with active mixing, dwell mixing, or no mixing. For in-line UV sterilizers that were used without mixing pumps, inversion mixing was performed to create a uniform sample prior to sampling. Multiple UV sterilizer UV lamp wattages were examined (10, 18 and 55 W). Multiple UV irradiation sources may be installed adjacently with serial connection to each other to increase effluent exposure time.
# DAB UV oxidation experiments were performed in the Aquatop 10 W in-line UV sterilizer as above with variable sample matrices (i.e. DDI water versus BenchMark IHC Waste). […] A fresh BenchMark Ultra OptiView DAB with TSA Amp IHC Waste was used for this experiment where the aqueous layer was separated from a majority of the LCS by gravity. The BenchMark IHC Waste still contained some LCS, which was finely dispersed with the BenchMark IHC waste surfactants. Both samples were irradiated by UV light for 75 minutes. The Aquatop in-line sterilizer was inverted (2×) using an air pocket to mix the matrix uniformly prior to sampling. The reaction mixture was analyzed by UPLC every 10 minutes.
# DAB UV oxidation experiments were performed within in-line UV water sterilizers with different UV lamp wattages. […] The Aquatop in-line sterilizer was inverted (2×) using an air pocket to mix the matrix uniformly prior to sampling. The reaction mixture was analyzed by UPLC every 10 minutes.
# [5] = DAB UV oxidation in 36 W top-down UV irradiation test bed, Reaction Buffer matrix; type: physicochemical
# Experimental: As shown in FIGS. 9A-9C, a test bed was prepared to investigate top-down UV irradiation systems without direct liquid contact to the UV irradiation source (also referred to as “UV lamp light”). This test bed used two 18 W lamps to irradiate the fluid matrix from above while the liquid meandered through a predetermined path in the metal tray below to control sample exposure time. The UV light sources may be installed adjacently in parallel connection to each other (e.g. UV light array, etc.) to increase the power of the array. Alternatively, the UV light sources may be installed serially to increase exposure time. A second bottom irradiation plastic container was prepared without the pathway. UV light is absorbed as it goes through a liquid medium causing the aqueous layer furthest from the lamp to receive less UV irradiation. This test bed was used to examine liquid layer thickness and waste matrix impurities (i.e. LCS, DAB oxidation products, etc.) impact on DAB UV decomposition rates.
# The 36 W top-down UV irradiation test bed without direct sample liquid contact to the UV light source was used to investigate matrix layer thickness tolerance during DAB UV irradiation (FIGS. 9A-9C). UV light is absorbed as it goes through a liquid medium causing the aqueous layer furthest from the lamp to receive less UV irradiation. A DAB sample in Reaction Buffer matrix was prepared at the expected waste concentration with approximately 20% (v/v) LCS. OptiView DAB IHC detection kit DAB chromogen, detection peroxide and inhibitor peroxide reagents were added to BenchMark Reaction Buffer matrix (143 μL each reagent per 250 mL). The 36 W top-down UV irradiation test bed bottom was filled with a specific matrix layer thickness (i.e. 10-, 20- or 30-mm thickness). The DAB sample was treated with UV irradiation without mixing and a sample was removed every 2 minutes to 10 minutes and then every 5 minutes thereafter through 30 minutes. The matrix sample was analyzed by RP UPLC.
# The 36 W top-down UV irradiation test bed without direct sample liquid contact to the UV light source was used to investigate how LCS could be tolerated during DAB UV irradiation in a top-down configuration. A DAB sample in Reaction Buffer matrix was prepared at the expected waste concentration with or without approximately 20% (v/v) LCS. OptiView DAB IHC detection kit DAB chromogen, detection peroxide and inhibitor peroxide reagents were added to Reaction Buffer matrix (143 μL each reagent per 250 mL). These Reaction Buffer/LCS mixed matrix was tested with LCS not mixed, mixed by inversion 20× to form an initial bubble LCS emulsion, and vigorously mixed to form an initial opaque LCS emulsion.
# The 36 W top-down UV irradiation test bed bottom was filled with a 10 mm volume layer thickness. The DAB sample was treated with UV irradiation without mixing and a sample was removed every 2 minutes to 10 minutes and then every 5 minutes thereafter through 30 minutes. The matrix sample was analyzed by RP UPLC. […] These DAB intermediates remained in solution longer when the opaque white LCS layer was present.
compound,measurement,setting,value
"CC(C)(N=NC(C)(C)C(=N)N)C(=N)N [2,2′-azobis(2-methylpropionatnidine)]",Effect on DAB decomposition with sonication,[1],promoted DAB oxidation with sonication
"CC(C#N)(CCC(=O)O)N=NC(C)(C#N)CCC(=O)O (stereo not shown) [4,4′-azobis(4-cyanovaleric acid)]",Effect on DAB decomposition with sonication,[1],promoted DAB oxidation with sonication
"Nc1ccc(C(=O)c2ccccc2)cc1 [ABP, 4-amino-benzophenone]",Impact on DAB UV oxidation,[2],appeared to inhibit DAB oxidation
same,% Loss DAB (30 min UV),[2],16%
"CC(C)(C#N)N=NC(C)(C)C#N [AIBN, azobisisobutyronitrile]",Sonication time after which no DAB monomer was detectable,[1],25 min
same,Impact on DAB UV oxidation,[2],minimal impact on DAB UV oxidation
same,% Loss DAB (30 min UV),[2],64%
"N.N.O=S(=O)(O)OOS(=O)(=O)O [APS, ammonium persulfate]",Sonication time after which no DAB monomer was detectable,[1],≤ 5 min
same,% Loss DAB (30 min UV),[2],100%
same,DAB loss,[2]; after 2 minutes exposure to the initiator,> 95%
"CCN(CC)c1ccc(C(=O)c2ccc(N(CC)CC)cc2)cc1 [BDABP, 4,4′-bisdiethylaminobenzophenone]",Impact on DAB UV oxidation,[2],decreased the amount of DAB monomer found in solution
same,% Loss DAB (30 min UV),[2],68%
"O=C(OOC(=O)c1ccccc1)c1ccccc1 [Benzoyl Peroxide, benzoyl peroxide]",Sonication time after which no DAB monomer was detectable,[1],5 min
same,Impact on DAB UV oxidation,[2],decreased the amount of DAB monomer found in solution
same,% Loss DAB (30 min UV),[2],72%
"Nc1ccc(-c2ccc(N)c(N)c2)cc1N [DAB, 3,3′-diaminobenzidine]",DAB monomer detected,"[3]; 10 W in-line UV sterilizer, 15 minutes of static UV irradiation without any mixing",Approximately 34%
same,DAB monomer still detectable,"[3]; 10 W, 60 minutes UV irradiation, absence of hydrogen peroxide",Approximately 10%
same,UV irradiation time after which no DAB monomer was detected,"[3]; 10 W, presence of hydrogen peroxide (1 mL 3% per approx. 225 mL)",50 min
same,UV irradiation time after which DAB monomer was not detectable,"[3]; 55 W UV in-line sterilizer, RP UPLC, data not shown",20 to 30 min
same,DAB monomer by UPLC after storage overnight at 10° C.,[3]; samples that received only 2 minutes UV irradiation,not detected; also recorded: No DAB monomer was detected
same,DAB monomer still detectable,"[2]; BenchMark Reaction Buffer, 60 minutes UV irradiation, absence of hydrogen peroxide",Approximately 38%
same,DAB monomer detected,"[2]; BenchMark Reaction Buffer, 60 minutes of UV irradiation, presence of hydrogen peroxide",Less than 5%
same,Time to DAB monomer at or below HPLC LOD,"[4]; BenchMark IHC waste, 10 W, 3 mL 3% peroxide per 250 mL",≤ 30 min
same,UV irradiation time for DAB monomer to decrease below LOD,"[4]; BenchMark IHC waste, 18 W, 3% hydrogen peroxide 20 mL per approx. 1.5 L",Approximately 90 minutes
same,UV irradiation time for DAB monomer to decrease to LOD,"[4]; BenchMark IHC waste, 3% hydrogen peroxide 20 mL per approx. 1.5 L",30 min
same,DAB monomer still detectable,"[4]; BenchMark waste, 10 W, 60 minutes UV irradiation, without hydrogen peroxide",about 21%
same,UV irradiation time for DAB monomer to decrease to LOD,"[4]; both BenchMark IHC waste matrices (with and without LCS emulsion), hydrogen peroxide",30 to 40 min
same,"UV irradiation time to no DAB intermediates (dimers, trimers)",[5]; 10 mm matrix layer thickness,15 to 20 min
same,"UV irradiation time to no DAB intermediates (dimers, trimers)",[5]; 20 mm matrix layer thickness,25 min
same,"UV irradiation time to no DAB intermediates (dimers, trimers)","[5]; 30 mm matrix layer thickness, intermediates still shown",> 30 min
same,UV irradiation time to no DAB intermediates,"[5]; Reaction Buffer only matrix, 10 mm layer",4 to 6 min
same,UV radiation time after which no DAB monomer was detected,"[5]; all aqueous layer thicknesses (10, 20, 30 mm), approx. 20% (v/v) LCS, no mixing",2 to 4 min
same,UV radiation time after which no DAB monomer was detected,"[5]; all sample matrices (with or without LCS, emulsions), 10 mm layer",2 to 4 min
same,UV irradiation time to no DAB intermediates,"[5]; clear LCS layered matrix, 10 mm layer",10 to 15 min
same,UV irradiation time to no DAB intermediates,"[5]; other LCS emulsion samples, 10 mm layer",20 to 25 min
"OO [Hydrogen Peroxide, hydrogen peroxide]",Effect on DAB decomposition with sonication,[1],failed to show any substantial DAB decomposition
same,% Loss DAB (30 min UV),[2],96%
same,Solubility in water,,completely soluble in water
"CC(=O)OO [Peracetic Acid, peracetic acid]",Impact on DAB UV oxidation,[2],decreased the amount of DAB monomer found in solution
same,% Loss DAB (30 min UV),[2],73%
same,Solubility in water,,completely soluble in water
CC1(C)CCCC(C)(C)N1[O] [TEMPO],Impact on DAB UV oxidation,[2],appeared to inhibit DAB oxidation
same,% Loss DAB (30 min UV),[2],45%
